Assay results published in patent US10156560B1, “Locomotive biological machines” (The Board of Trustees of the University of Illinois, priority 2013, dated 2018).
“Also recorded” adds a separate entry of the source.

Key:
Assay type in all cases: cell-based
C2C12 myoblasts [1] = assay: Compaction and snapping of collagen-based 3D skeletal muscle strips
Protocol: C2C12 myoblasts were transfected with pAAV-Cag-Chr2-GFP-2A-Puro with Lipofectamine 2000 (Invitrogen, Carlsbad, Calif.) and grown under puromycin (2.5 μg/mL) selection for 2 weeks. Before cell seeding, bio-bots were positioned beam-down in polymerized holders in a 35-mm cell culture dish and aspirated of excess liquid. A liquid suspension of C2C12 skeletal muscle myoblasts and ECM proteins was added around the pillars of the bio-bot and polymerized via gelation of the matrix proteins. Embedded cells exerted traction forces on the fibrous proteins via integrin attachments to compact the matrix into a muscle strip over time, and the capped pillars acted as a physical anchor for the muscle strip to mimic the in vivo musculoskeletal arrangement in which force transmission occurs from a contracting muscle to bone through a connecting tendon. The ECM was a mixture of i) type I collagen or fibrin and ii) Matrigel™, a composition of laminin, entactin, and type IV collagen. Collagen and fibrin were chosen because naturally-derived hydrogels undergo macro-scale compaction when mixed with cells, leading to a substantially higher cell density and unidirectional cell alignment between the posts. For collagen strips, a cooled suspension of liquid type I collagen from rat tail (0.8, 1.4, or 2.0 mg/mL, BD Biosciences) was mixed with equal parts ice-cold growth medium and neutralized with 0.01 N NaOH. Pelleted cells (1.0-10.0×10^6 cells/mL) were resuspended in ice-cold growth medium and mixed with Matrigel™ (30% v/v, BD Biosciences). Liquid neutralized type I collagen was mixed thoroughly with cells (C2C12 myoblasts (ATCC)) and Matrigel™, and the mixtures were added to each holder. For fibrin muscle strips, an ice-cold cell-matrix solution of Matrigel™ (30% of total cell-matrix volume), fibrinogen (4 mg/mL, Sigma-Aldrich), thrombin from bovine plasma (0.5 U/mg fibrinogen, Sigma-Aldrich), and C2C12s suspended in GM at a concentration of 5×10^6 cells/mL were added to each holder. The post/beam assemblies were then incubated at 37° C. to induce collagen/fibrin polymerization, and growth medium was added to each assembly upon gelation. Time-lapsed compaction was captured with a stereomicroscope (MZ FL III, Leica).
To confirm that gel compaction was caused by traction forces from the cells, muscle strips were treated with 50 μg/mL blebbistatin (FIG. 27A). Blebbistatin blocks myosin II activity in the cells, which prevents inward translation of the traction forces. […] The muscle strips treated with IGF-1 (50 ng/mL) compacted rapidly but snapped near the posts within 24 h (FIG. 27C). Thus, the formation of muscle strips was cell-induced through passive tension around the two posts. […]

C2C12 muscle strips [2] = assay: Passive tension force of muscle strips from beam deflection
From the text: Using Euler-Bernoulli linear bending theory, a formula was derived relating the observed hydrogel beam deflection to the muscle-generated passive tension force. Assuming negligible rotation in the beam and a small angle approximation, equating the applied moment M to tension P times the moment arm I from the muscle strip to the beam reduced the second-order differential equation to
[formula] where I is the moment of inertia of the rectangular cross-section and y is the horizontal deflection of the beam. Boundary conditions were applied by assuming zero deflection at ends of the beam (L=0) and maximum deflection δmas at the center (L/2).
[formula] Beam dimensions, moment arm, and maximum deflection were averaged from 3 measurements of each device using the Measure Tool in ImageJ (NIH). Solving for P yielded the relation:
Finite element analysis was then used to model and simulate global displacement of the beam and pillars in response to an applied force; the simulated deflection values differed 18-19% from actual measurements.
To determine an optimal matrix system for engineered muscle functionality, the passive tension forces generated by collagen- and fibrin-based cell-matrix systems were compared. In muscle strips comprising the same number of cells, a significant increase in passive tension in those containing fibrin (629.3±8.2 μN) compared to collagen (534.2±5.8 μN) was observed. Advantageously, fibrin polymerizes relatively quickly when compared to other ECM proteins, and it can undergo large deformations without breaking (Liu et al., 2006, Science 313(5787):634; Janmey et al., 2009, J R Soc Interface 6(30):1-10). […]
This significant increase in force production was likely due to a greater number of differentiated myotubes in muscle strips supplemented with IGF-1. A normalized stress in the muscle strips with IGF-1 was calculated by dividing the passive tension by the cross-sectional area of the tissue, which averaged 1.2±0.04 mm^2 (n=9). […]

C2C12 muscle strips [3] = assay: Lifetime of fibrin muscle strip bio-bots (days until fracture)
Protocol: Similarly, the lifetime of fibrin muscle strip bio-bots (i.e. days until fracture of the muscle strip) was affected by the presence or absence of 50 ng/mL IGF-1 and/or 1 mg/mL aminocaproic acid. There was a significant increase in the fibrin muscle strip lifetime with the addition of 1 mg/mL aminocaproic acid (25±1.15 days) compared to the control of 10% HS (8.75±7.63).

C2C12 myoblasts [4] = assay: Differentiation, viability (MTS) and proliferation in muscle strips
Protocol: After 7 days, the myoblasts were induced to differentiate by switching to high-glucose DMEM supplemented with 10% horse serum (Lonza) and 50 ng/mL insulin-like growth factor-1 (IGF-1, Sigma). A protease inhibitor, aminocaproic acid (1 mg/mL, Sigma) was added to the growth and differentiation medium to prevent degradation of the extracellular matrix proteins by the cells. Differentiated, multinucleated myotubes were distributed throughout muscle strips supplemented with IGF-1.
An MTS assay was used to evaluate cell viability over time. Muscle strips comprising […] and supplemented with IGF-1 and aminocaproic acid were incubated with MTS (Promega) and phenazine methosulfate (Sigma-Aldrich) in DMEM without phenol red for 4 h at 37° C. Absorbance of MTS formazan product formation was measured at 490 nm using a Synergy HT microplate reader (BioTek) for four different time points and normalized to day 0 (day of cell seeding). The relative absorbance of muscle strips indicated a viability of cells within the muscle strip of 85.76±10.74% and 79.71±14.78% after days 6 and 9, respectively.

C2C12 muscle strips [5] = assay: Electrically paced actuation of fibrin-based muscle strips
Protocol: To externally control muscle contraction and bio-bot locomotion, a custom-designed setup (Bajaj et al., 2011, Integr Biol (Camb) 3(9):897-909) was used to stimulate reproducible contraction of excitable cells within the muscle strip with a bipolar electrical pulse train (FIGS. 30A and 30B). The output from a waveform generator was amplified through an AD797 inverting amplifier. A capacitor C was added in series to minimize electrolysis of the media by converting the square pulse to a biphasic pulse; the system was then treated as an RC circuit (FIG. 30B). A 35-mm culture dish was modified to allow Pt electrodes of diameter 0.762 mm to pass through the lid of the dish. The average resistance of the electrical stimulation medium (DMEM without serum) was calculated by measuring the time constant τ from the oscilloscope and dividing by C for each volume at 23° C. and 37° C. The conductivity of the medium was measured using a pH/Conductivity meter (Orion 4-Star, Thermo Scientific), at 23° C. and 37° C. During stimulation, the bio-bot was placed in 4 mL of warm electrical stimulation medium between the positive and ground electrodes, and a current was applied perpendicular to the long axis, with stimulation frequencies up to 10 Hz and never exceeding more than half of the sampling frequency, per the Nyquist criterion. Bio-bots were stimulated with bipolar electrical pulses of 20 V amplitude (21.6 V/cm field strength) and 50 ms pulse width. Simultaneous imaging was achieved by positioning the dish on the stage of a stereoscope. Top-view movies were acquired with a stereomicroscope with a digital microscope camera at 9.2 fps. Side-view movies were acquired using a camcorder (Handycam DCR-SR65, Sony) at 30 fps. Electrodes were sterilized in 70% ethanol and rinsed with PBS between experiments.
Twitch contractions were observed below 8-10 Hz and tetanus above this upper frequency limit.
A Kelvin-Voigt viscoelasticity model that correlated the observed cyclic displacement to the contractile force was used to extract the active tension generated by IGF-1 supplemented muscle strips in response to electrical stimulation. The active stress generated by the muscle strip was computed as a function of the strain ε(t) and strain rate dε(t)/dt observed in the hydrogel beam with viscosity η. The time-varying displacement data was converted into time-varying strain, and the following equation was used to compute the resulting active stress: […]
The range of active tension during contraction decreased with increasing stimulation frequency, from a dynamic fluctuation of 198.68 μN during 1 Hz stimulation to 109.48 μN during 4 Hz stimulation. The active tension data followed a positive force-frequency relationship in which the magnitude of the active tension exerted by the muscle increased, even while the range of pillar motion decreased.

Compound: Cc1ccc2c(c1)C(=O)C1(O)CCN(c3ccccc3)C1=N2 (centres unmarked) [blebbistatin]
- compaction of muscle strip (C2C12 myoblasts [1]; blebbistatin in medium, 48 hours of culture): lack of compaction; also recorded: prevented its compaction

Compound: IGF-1: insulin-like growth factor 1, a potent mitogen
- increase in passive tension force compared to control without IGF-1 (C2C12 muscle strips [2]; fibrin-based muscle strips): 70.7%
- passive tension force (C2C12 muscle strips [2]; fibrin-based muscle strips supplemented with IGF-1): 992.7±34.3 μN
- passive stress (C2C12 muscle strips [2]; muscle strips with IGF-1, tension divided by cross-sectional area): 0.84±0.03 kPa
- decrease in days until fracture compared to the 1 mg/mL ACA condition (C2C12 muscle strips [3]; 50 ng/mL): 22.0%
- decrease in days until fracture compared to the control (C2C12 muscle strips [3]; 50 ng/mL, control 10% HS): 51.43%
- portion of the fibrin-based muscle strip occupied by cells (C2C12 myoblasts [4]; 50 ng/mL): more than doubled
- cell proliferation compared to control muscle strips (C2C12 myoblasts [4]; day 9): enhanced cell proliferation
- range of active tension during contraction (C2C12 muscle strips [5]; 1 Hz stimulation): 198.68 μN
- range of active tension during contraction (C2C12 muscle strips [5]; 4 Hz stimulation): 109.48 μN
- Output (C2C12 muscle strips [5]; stimulation 1 Hz): 1.01 ± 0.003 Contractions/s
- Output (C2C12 muscle strips [5]; stimulation 2 Hz): 2.01 ± 0.01 Contractions/s
- Output (C2C12 muscle strips [5]; stimulation 4 Hz): 3.95 ± 0.05 Contractions/s

Compound: NCCCCCC(=O)O [aminocaproic acid, ε-aminocaproic acid]
- snapping of collagen muscle strip (C2C12 myoblasts [1]; 1 mg/mL in medium): remained intact
- time muscle strip remained stable (C2C12 myoblasts [1]; 1 mg/mL in medium): > 14 days
- snapping of collagen muscle strip (C2C12 myoblasts [1]; 1 mg/mL in medium, listed as EAC): prevented the muscle strip from snapping
- fibrin muscle strip lifetime (days until fracture) (C2C12 muscle strips [3]; 1 mg/mL): 25 ± 1.15 days
